Assay results published in US12655116B2, “Substituted isophthalic acid diamides” (Bayer Aktiengesellschaft, priority 2020, dated 2026).

Tests used:
[1] = system: VERPE; test: Pre-emergence herbicidal action against VERPE; type: in vivo, Veronica persica; conditions: dosage 80 g/ha
Method in brief: (§1)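 Pre-emergence soil-surface spray of formulated compound (WP or EC; 600 to 800 l/ha; 0.2% wetting agent) over seeds sown in sandy loam. After 3 weeks under greenhouse conditions, damage is estimated visually in percent against untreated plants.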

[2] = system: MATIN; test: Post-emergence herbicidal action against MATIN; type: in vivo, Matricaria inodora
Method in brief: (§2)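 Greenhouse plants in sandy loam were sprayed at the one-leaf stage, 2 to 3 weeks after sowing, with WP or EC formulations as aqueous suspension or emulsion (600 to 800 l/ha water, 0.2% wetting agent). Visual damage was scored about 3 weeks later versus untreated controls, 0% = like control, 100% = dead.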

[3] = system: ABUTH; test: Pre-emergence herbicidal action against ABUTH; type: in vivo, Abutilon theophrasti
Method in brief: as §1

[4] = system: SETVI; test: Pre-emergence herbicidal action against SETVI; type: in vivo, Setaria viridis
Method in brief: as §1

[5] = system: MATIN; test: Pre-emergence herbicidal action against MATIN; type: in vivo, Matricaria inodora
Method in brief: as §1

[6] = system: ALOMY; test: Post-emergence herbicidal action against ALOMY; type: in vivo, Alopecurus myosuroides; conditions: visual assessment about 3 weeks after treatment vs untreated controls
Method in brief: as §2

[7] = system: SETVI; test: Post-emergence herbicidal action against SETVI; type: in vivo, Setaria viridis
Method in brief: as §2

[8] = system: VERPE; test: Post-emergence herbicidal action against VERPE; type: in vivo, Veronica persica
Method in brief: as §2

[9] = system: AVEFA; test: Pre-emergence herbicidal action against AVEFA; type: in vivo, Avena fatua; conditions: Avena fatua, 504 h, pre-emergence
Method in brief: as §1

[10] = system: PHBPU; test: Post-emergence herbicidal action against PHBPU; type: in vivo, Pharbitis purpurea; conditions: Ipomoea purpurea, 504 h, dosage 20 g/ha
Method in brief: as §2

[11] = system: ECHCG; test: Post-emergence herbicidal action against ECHCG; type: in vivo, Echinochloa crus-galli; conditions: Echinochloa crus-galli, 504 h, dosage 20 g/ha
Method in brief: as §2

[12] = system: PHBPU; test: Pre-emergence herbicidal action against PHBPU; type: in vivo, Pharbitis purpurea; conditions: dosage 80 g/ha
Method in brief: as §1

[13] = system: AMARE; test: Post-emergence herbicidal action against AMARE; type: in vivo, Amaranthus retroflexus; conditions: 20 g/ha, visual assessment about 3 weeks after treatment, 100% = plants have died, 0% = like control plants
Method in brief: as §2

[14] = system: VIOTR; test: Pre-emergence herbicidal action against VIOTR; type: in vivo, Viola tricolor
Method in brief: as §1

[15] = system: AMARE; test: Pre-emergence herbicidal action against AMARE; type: in vivo, Amaranthus retroflexus
Method in brief: as §1

[16] = system: POLCO; test: Pre-emergence herbicidal action against POLCO; type: in vivo, Polygonum convolvulus; conditions: dosage 80 g/ha
Method in brief: as §1

[17] = system: ALOMY; test: Pre-emergence herbicidal action against ALOMY; type: in vivo, Alopecurus myosuroides; conditions: 80 g/ha, pre-emergence, scored visually after 3 weeks vs untreated controls (100% = plants have died, 0% = like control plants)
Method in brief: as §1

[18] = system: ABUTH; test: Post-emergence herbicidal action against ABUTH; type: in vivo, Abutilon theophrasti; conditions: visual assessment about 3 weeks after treatment vs untreated controls
Method in brief: as §2

[19] = system: AVEFA; test: Post-emergence herbicidal action against AVEFA; type: in vivo, Avena fatua; conditions: 20 g/ha, visual assessment about 3 weeks after treatment, 100% = plants have died, 0% = like control plants
Method in brief: as §2

[20] = system: ECHCG; test: Pre-emergence herbicidal action against ECHCG; type: in vivo, Echinochloa crus-galli; conditions: 80 g/ha
Method in brief: as §1

[21] = system: VIOTR; test: Post-emergence herbicidal action against VIOTR; type: in vivo, Viola tricolor
Method in brief: as §2

[22] = system: DIGSA; test: Pre-emergence herbicidal action against DIGSA; type: in vivo, Digitaria sanguinalis
Method in brief: as §1

[23] = Tripleurospermum inodorum, 504 h, dosage 20 g/ha
[24] = 80 g/ha, scored visually after 3 weeks vs untreated controls (100% = plants have died, 0% = like control plants)

For `CCn1nnnc1NC(=O)c1ccc(C(F)F)c(C(=O)NC(C)C)c1C` [Example 2-345], the pest or weed control at 80 g/ha ([1]; Veronica persica, 504 h) was 100%, the pest or weed control at 5 g/ha ([2]; Tripleurospermum inodorum, 504 h, dosage 5 g/ha) was 90% and the pest or weed control at 20 g/ha [2, 23] was 100%. The pest or weed control at 80 g/ha ([3]; Abutilon theophrasti, 504 h, 80 g/ha, scored visually after 3 weeks vs untreated controls (100% = plants have died, 0% = like control plants)) was 100%, the pest or weed control at 20 g/ha ([3]; Abutilon theophrasti, 504 h, dosage 20 g/ha, scored visually after 3 weeks vs untreated controls, 100% = plants have died, 0% = like control plants, read-out: Pre-emergence action against ABUTH (herbicidal activity in percent)) was 90% and the pest or weed control at 80 g/ha ([4]; Setaria viridis, 504 h, dosage 80 g/ha) was 100%. It also gave a pest or weed control at 20 g/ha [5, 23] of 100%, a pest or weed control at 80 g/ha ([5]; Tripleurospermum inodorum, 504 h, dosage 80 g/ha) of 100% and a pest or weed control at 5 g/ha ([6]; Alopecurus myosuroides, 504 h, dosage 5 g/ha) of 80%. The pest or weed control at 20 g/ha ([6]; Alopecurus myosuroides, 504 h, dosage 20 g/ha) was 80%, the pest or weed control at 5 g/ha ([7]; Setaria viridis, 504 h, dosage 5 g/ha) was 80% and the pest or weed control at 20 g/ha ([7]; Setaria viridis, 504 h, dosage 20 g/ha) was 100%. The pest or weed control at 20 g/ha ([8]; Veronica persica, 504 h, 20 g/ha) was 80%, the pest or weed control at 80 g/ha ([9]; 80 g/ha) was 80% and the pest or weed control at 20 g/ha ([9]; 20 g/ha, scored visually after 3 weeks, 100% = plants have died, 0% = like control plants) was 80%. The pest or weed control at 20 g/ha [10] was 100%, the pest or weed control at 20 g/ha [11] was 80% and the pest or weed control at 80 g/ha ([12]; Ipomoea purpurea, 504 h) was 80%. It also gave a pest or weed control at 20 g/ha ([13]; Amaranthus retroflexus, 504 h) of 100%, a pest or weed control at 20 g/ha ([14]; Viola tricolor, 504 h, dosage 20 g/ha) of 80% and a pest or weed control at 80 g/ha ([14]; Viola tricolor, 504 h, dosage 80 g/ha) of 100%. For the same molecule, the pest or weed control at 20 g/ha ([15]; Amaranthus retroflexus, 504 h, 20 g/ha, scored visually after 3 weeks vs untreated controls, 100% = plants have died, 0% = like control plants) was 100%, the pest or weed control at 80 g/ha ([15]; Amaranthus retroflexus, 504 h, 80 g/ha, scored visually after 3 weeks vs untreated controls, 100% = plants have died, 0% = like control plants) was 100% and the pest or weed control at 80 g/ha ([16]; Fallopia convolvulus, 504 h) was 90%. For the same molecule, the pest or weed control at 80 g/ha ([17]; Alopecurus myosuroides, 504 h) was 80%, the pest or weed control at 5 g/ha ([18]; Abutilon theophrasti, 504 h, dosage 5 g/ha) was 90% and the pest or weed control at 20 g/ha ([18]; Abutilon theophrasti, 504 h, dosage 20 g/ha) was 90%. The pest or weed control at 20 g/ha ([19]; Avena fatua, 504 h) was 80%, the pest or weed control at 80 g/ha ([20]; Echinochloa crus-galli, 504 h) was 90% and the pest or weed control at 5 g/ha ([21]; Viola tricolor, 504 h, 5 g/ha) was 90%. The pest or weed control at 20 g/ha ([21]; Viola tricolor, 504 h, 20 g/ha) was 90%.
`CCc1c(C(=O)Nc2nnnn2CC)ccc(C(F)(F)F)c1C(=O)NC` [Example 2-271] was tested, and the “Pre-emergence action against VERPE in %” value [1] was 100%, the “Post-emergence action against MATIN in %” value ([2]; dosage 5 g/ha) was 100% and the “Post-emergence action against MATIN in %” value ([2]; dosage 20 g/ha) was 100%. For the same molecule, the “Pre-emergence action against ABUTH (herbicidal activity)” value [3, 24] was 100%, the “Pre-emergence action against ABUTH (herbicidal activity in percent)” value ([3]; dosage 20 g/ha, scored visually after 3 weeks vs untreated controls, 100% = plants have died, 0% = like control plants) was 100% and the “Pre-emergence action against SETVI in %” value ([4]; dosage 20 g/ha) was 100%. The “Pre-emergence action against SETVI in %” value ([4]; dosage 80 g/ha) was 100%, the “Pre-emergence action against MATIN in %” value ([5]; dosage 20 g/ha) was 100% and the “Pre-emergence action against MATIN in %” value ([5]; dosage 80 g/ha) was 100%. For the same molecule, the “Post-emergence action against ALOMY in %” value ([6]; dosage 20 g/ha) was 100%, the “Post-emergence action against SETVI in %” value ([7]; dosage 5 g/ha) was 100% and the “Post-emergence action against SETVI in %” value ([7]; dosage 20 g/ha) was 100%. For the same molecule, the “Post-emergence action against VERPE in %” value ([8]; 5 g/ha) was 80%, the “Post-emergence action against VERPE in %” value ([8]; 20 g/ha) was 90% and the “Pre-emergence action against PHBPU in %” value [12] was 100%. The “Post-emergence action at 20 g/ha against AMARE in %” value [13] was 100%, the “Pre-emergence action against VIOTR in %” value ([14]; dosage 20 g/ha) was 100% and the “Pre-emergence action against VIOTR in %” value ([14]; dosage 80 g/ha) was 100%. For the same molecule, the “Pre-emergence action against AMARE in %” value ([15]; 20 g/ha, scored visually after 3 weeks vs untreated controls, 100% = plants have died, 0% = like control plants) was 100%, the “Pre-emergence action against AMARE in %” value [15, 24] was 100% and the “Pre-emergence action against POLCO in %” value [16] was 80%. The “Pre-emergence action against ALOMY (herbicidal activity)” value [17] was 80%, the “Pre-emergence action against DIGSA in %” value ([22]; dosage 20 g/ha) was 100% and the “Pre-emergence action against DIGSA in %” value ([22]; dosage 80 g/ha) was 100%. For the same molecule, the “Post-emergence action against ABUTH in %” value ([18]; dosage 5 g/ha) was 100%, the “Post-emergence action against ABUTH in %” value ([18]; dosage 20 g/ha) was 100% and the “Post-emergence action at 20 g/ha against AVEFA in %” value [19] was 80%. For the same molecule, the “Pre-emergence action against ECHCG in %” value [20] was 100%, the “Post-emergence action against VIOTR in %” value ([21]; 5 g/ha) was 80% and the “Post-emergence action against VIOTR in %” value ([21]; 20 g/ha) was 80%.
